Converted amounts (≈) assume the structure as drawn.
Key:
Type in all cases: cell-based
MCF-7 (breast) = test: Sulforhodamine B human cancer cell growth inhibition, MCF-7; conditions: compounds in DMSO, 48 h; for Gl50 Growth Inhibition, MCF-7: MCF-7 breast cell line; for IC50: Homo sapiens, MCF7, MCF-7 breast cell line, read-out: Gl50 Growth Inhibition, MCF-7
Description: (§1) Cancer Cell Line Procedures. Inhibition of human cancer cell growth was assessed using the standard sulforhodamine B assay of the U.S. National Cancer Institute, as previously described.^15 To begin, cells in a 5% fetal bovine serum/RPMI1640 medium were inoculated in 96-well plates and incubated for 24 h. Next, serial dilutions of the compounds were added. After 48 h, the plates were fixed with trichloroacetic acid, stained with sulforhodamine B, and read with an automated microplate reader.

BXPC-3 (pancreas) = test: Sulforhodamine B human cancer cell growth inhibition, BXPC-3; conditions: BXPC-3 pancreas cell line, compounds in DMSO, 48 h; for IC50: Homo sapiens, read-out: Gl50 Growth Inhibition, XPC-3
Description: as §1

KM20L2 (colon) = test: Sulforhodamine B human cancer cell growth inhibition, KM20L2; conditions: compounds in DMSO, 48 h; for Gl50 Growth Inhibition, KM20L2: KM20L2 colon cell line; for IC50: Homo sapiens, KM-20L2, KM20L2 colon cell line, read-out: Gl50 Growth Inhibition, KM20L2
Description: as §1

Human Cancer Cell Lines = test: Human cancer cell line panel, overall comparison of growth inhibition; conditions: general statement on Table 1; comparator not stated
Description: as §1, with “reader. A growth inhibition of 50% (GI50 or the drug concentration causing a 50% reduction in the net protein increase) was calculated from optical density data with Immunosoft® software.” for “reader.”

SF-268 (CNS) = test: Sulforhodamine B human cancer cell growth inhibition, SF-268; conditions: SF-268 CNS cell line, compounds in DMSO, 48 h; for IC50: Homo sapiens, read-out: Gl50 Growth Inhibition, SF-268
Description: as §1

NCI-H460 (lung) = test: Sulforhodamine B human cancer cell growth inhibition, NCI-H460; conditions: NCI-H460 lung cell line, compounds in DMSO, 48 h; for IC50: Homo sapiens, read-out: Gl50 Growth Inhibition, NCI-H460
Description: as §1

DU-145 (prostate) = test: Sulforhodamine B human cancer cell growth inhibition, DU-145; conditions: DU-145 prostate cell line, compounds in DMSO, 48 h; for IC50: Homo sapiens, read-out: Gl50 Growth Inhibition, DU-145
Description: as §1

Row | Compound | Gl50 Growth Inhibition, MCF-7 (MCF-7 (breast)) | Gl50 Growth Inhibition, XPC-3 (BXPC-3 (pancreas)) | Gl50 Growth Inhibition, KM20L2 (KM20L2 (colon)) | fold increase in cancer cell growth inhibition (Human Cancer Cell Lines) | Gl50 Growth Inhibition, SF-268 (SF-268 (CNS)) | Gl50 Growth Inhibition, NCI-H460 (NCI-H460 (lung)) | Gl50 Growth Inhibition, DU-145 (DU-145 (prostate)) | IC50 (MCF-7 (breast)) | IC50 (BXPC-3 (pancreas)) | IC50 (KM20L2 (colon)) | IC50 (SF-268 (CNS)) | IC50 (NCI-H460 (lung)) | IC50 (DU-145 (prostate))
1 | 3β-Amino-N-(Dap-Dil-Val-Dov)-betulin [Compound 11b] | 0.70 µg/mL | 2.0 µg/mL | 0.85 µg/mL | ~10 fold | 0.40 µg/mL | 2.1 µg/mL | 0.40 µg/mL |  |  |  |  |  | 
2 | C=C(C)[C@@H]1CC[C@]2(COC(C)=O)CC[C@]3(C)[C@H](CC[C@@H]4[C@@]5(C)CCC(N)C(C)(C)[C@@H]5CC[C@]43C)[C@@H]12 (single isomer, unassigned) [Compound 9b, 3-α/β-Amino-28-O-acetyl-betulin] | 0.20 µg/mL | 1.1 µg/mL | 0.35 µg/mL | ~10 fold | 0.21 µg/mL | 0.21 µg/mL | 0.13 µg/mL |  |  |  |  |  | 
3 | C=C(C)[C@@H]1CC[C@]2(CNC(=O)[C@H](C)[C@@H](OC)C3CCCN3C(=O)C[C@@H](OC)[C@H]([C@@H](C)CC)N(C)C(=O)C(NC(=O)[C@H](C(C)C)N(C)C)C(C)C)CC[C@]3(C)C(CCC4[C@@]5(C)CC[C@H](O)C(C)(C)C5CC[C@]43C)C12 (stereo partly drawn) [Compound 7b, Betulin-28-amino-N-(Dap-Dil-Val-Dov)] |  |  |  | ~10 fold |  |  |  | 0.4 µg/mL (≈ 0.391 µM) | 0.6 µg/mL (≈ 0.587 µM) | 0.31 µg/mL (≈ 0.303 µM) | 0.3 µg/mL (≈ 0.293 µM) | > 1 µg/mL | 0.4 µg/mL (≈ 0.391 µM)
4 | C=C(CNC(=O)[C@H](C)[C@@H](OC)C1CCCN1C(=O)C[C@@H](OC)[C@H]([C@@H](C)CC)N(C)C(=O)[C@@H](NC(=O)C(C(C)C)N(C)C)C(C)C)[C@@H]1CC[C@]2(CO)CC[C@]3(C)C(CCC4[C@@]5(C)CC[C@H](O)C(C)(C)[C@@H]5CC[C@]43C)[C@@H]12 (stereo partly drawn) [Compound 16b, 30-N-(Dap-Dil-Val-Dov)-betulin] |  |  |  | hundred-fold |  |  |  | 0.08 µg/mL (≈ 0.077 µM) | 0.4 µg/mL (≈ 0.385 µM) | 0.09 µg/mL (≈ 0.0867 µM) | 0.04 µg/mL (≈ 0.0385 µM) | 0.5 µg/mL (≈ 0.481 µM) | 0.04 µg/mL (≈ 0.0385 µM)
5 | CC[C@H](C)C([C@@H](CC(=O)N1CCCC1[C@H](OC)[C@@H](C)C(=O)NCCN1C(=O)[C@]23CCC(C)(C)C1C2[C@H]1CCC2[C@@]4(C)CC[C@H](O)C(C)(C)C4CC[C@@]2(C)[C@]1(C)CC3)OC)N(C)C(=O)[C@@H](NC(=O)[C@H](C(C)C)N(C)C)C(C)C (stereo partly drawn) [Compound 18b, 28-Amido-allobetulin-28-N-1′-ethyldiamine-N-2′-Dap-Dil-Val-Dov] |  |  |  | ~10 fold |  |  |  | 0.21 µg/mL (≈ 0.195 µM) | 0.31 µg/mL (≈ 0.287 µM) | 0.22 µg/mL (≈ 0.204 µM) | 0.09 µg/mL (≈ 0.0834 µM) | 0.6 µg/mL (≈ 0.556 µM) | 0.06 µg/mL (≈ 0.0556 µM)

— patent US12258370B2, “Betulastatin compounds” (Arizona Board of Regents on behalf of Arizona State …, priority 2017, dated 2025)
